The text below walks through data of patent publication US20210317102A1, “INHIBITORS OF INTEGRATED STRESS RESPONSE PATHWAY” (Praxis Biotech LLC, priority 2019, published 2021).

The test system of experiment [1] is Chinese hamster ovary (CHO) cells. Kind of experiment: Protein synthesis assay (puromycin incorporation, western blot). The settings on record: 2 hours, media alone = 100%; for activity at 1 µM: Cricetulus griseus, unstressed CHO cells (without Tg), 1 μM test compound, read-out: % Protein synthesis relative to untreated (1 μM test compound); for % Recovery of protein synthesis (1 μM test compound): stressed CHO cells, 300 nM Tg plus 1 μM test compound, Tg alone = 0%. It counts as cell-based. How it is done:
Chinese hamster ovary (CHO) cells were maintained at 37° C. and 5% CO2 in Dulbecco's Modified Eagle's Media (DMEM) supplemented with 10% fetal bovine serum, 2 mM L-glutamine, 100 U/ml penicillin, and 100 μg/ml streptomycin. After reaching 80% of confluence, cells were detached and seeded on 6 well plates in complete media, allowed to recover overnight and treated for 2 hours with 1 μM of the test compound (to assess protein synthesis levels in unstressed condition), or for 2 hours with 300 nM Tg in the presence of 1 μM of the test compound (to assess the recovery of protein synthesis in a stressed condition). Cells with Tg alone were used as controls.
After the 2 hours treatments, media were replaced by adding 10 μg/ml puromycin (Sigma Aldrich #P8833) in complete media for 30 min. Media were removed and cells were lysed with SDS-PAGE lysis buffer. Lysates were transferred to 1.5 ml tubes and sonicated for 3 min and total protein amount were quantified using BCA Protein Assay Kit (Pierce). Equal amount of protein (30 μg) was loaded on SDS-PAGE gels. Proteins were transferred onto […] PVDF membranes (BioRad) and probed with primary antibodies diluted in Tris-buffered saline supplemented with 0.1% Tween 20 (Merck #S6996184 505) and 3% bovine serum albumin (Rockland #BSA-50).
Puromycin (12D10) (Merck #MABE343) and j-actin (Sigma Aldrich #A5441) antibodies were used as primary antibody. A HRP-conjugated secondary antibody (Rockland) was employed to detect immune-reactive bands using enhanced chemiluminescence (ECL Western Blotting Substrate, Pierce). Quantification of protein bands was done by densitometry using ImageJ software.
Percent increase of protein synthesis in unstressed cells (without Tg treatment) in the presence of media alone or certain test compounds is shown in Table 3. The percentage levels were normalized to the media alone condition, which correspond to 100% protein synthesis.
Percent recovery of protein synthesis in stressed cells (with Tg treatment) due to the test compounds at 1 μM is also shown in Table 3. The levels were normalized to the media alone and Tg alone conditions, which correspond to 100% and 0% respectively.

Experiment [2] concerns ATF4 expression, HEK293T cells carrying the ATF4 luciferase reporter. Kind of experiment: ATF4 expression inhibition assay (ATF4 luciferase reporter). It counts as cell-based. The settings on record: Homo sapiens, HEK-293T, 100 nM thapsigargin, 3 hours. How it is done:
The ATF4 reporter was prepared by fusing the human full length 5′UTR of ATF4 (NCBI Accession No. BC022088.2) upstream of the firefly luciferase coding sequence lacking the initiator methionine. The fused sequence was cloned into pLenti-EFla-C-Myc-DDK-IRES-Puro cloning vector (Origen #PS100085) using standard methods. Virus production was carried out by using Lenti-X™ Packaging Single Shots Protocol (Clonetech #631276). Viral particles were used to transduce HEK293T cells (ATCC #CRL-3216, ATCC Manassas, Va.), which were subsequently selected with puromycin to generate stable cell line. Cells were maintained at 37° C. and 5% CO2 in DMEM-F12 (Hyclone #SH30023.02) supplemented with 10% heat-inactivated fetal bovine serum (Gibco #16000-044), 2 mM L-glutamine (Gibco #25030-081), 100 U/ml penicillin, and 100 μg/ml streptomycin (Gibco #^15140-122).
HEK293T cells carrying the ATF4 luciferase reporter were plated on 96-well plates (Nunc) at 10,000 cells per well. Cells were treated two days after seeding with 100 nM thapsigargin (Tg) (Sigma-Aldrich #T9033) in the presence of different concentrations of selected compounds ranging from 1 nM to 10 μM. Cells without treatment or cells treated with Tg alone were used as controls. Assay plates containing cells were incubated for 3 hours at 37° C.
Luciferase reactions were performed using Luciferase Assay System (Promega #E1501) as specified by the manufacturer. Luminescence was read with an integration time of 1 s and a gain of 110 using a Cytation-5 multi-mode microplate reader (BioTek). Relative luminescence units were normalized to Tg treatment (0% inhibition) and untreated cells (100% inhibition) and the percentage of ATF4 inhibition was calculated.
Accordingly, inhibition of ATF4 expression as a result of the test compound indicates suppression of the ISR pathway.

Turning to `O=C(COc1ccc(Cl)c(F)c1)N[C@H]1CC[C@H](CNC(=O)c2ccc(Cl)c(F)c2)CC1` [Compound 23, trans-4-chloro-N-((4-(2-(4-chloro-3-fluorophenoxy)acetamido)cyclohexyl)methyl)-3-fluorobenzamide], in experiment [1], the activity at 1 µM amounted to 93% and the “% Recovery of protein synthesis (1 μM test compound)” value (“% Recovery of protein synthesis” below) turned out to be 74.1%. The compound also had an IC50 in experiment [2] of 1.27 nM.
`O=C(COc1cccc(Cl)c1)NC[C@H]1CC[C@H](NC(=O)COc2ccc(Cl)c(F)c2)CC1` [Compound 30, trans-2-(4-chloro-3-fluorophenoxy)-N-(4-((2-(3-chlorophenoxy)acetamido)methyl)cyclohexyl)acetamide]: in experiment [1], the activity at 1 µM was 110% and the “% Recovery of protein synthesis” value is given as 0.4%. Besides, in experiment [2], the IC50 is below 1000 nM.
Turning to `CN1C[C@H](C(=O)N[C@H]2CC[C@H](NC(=O)COc3ccc(Cl)cc3)CC2)Oc2ccc(Cl)cc21` [Compound 85, trans-(R)-6-chloro-N-(4-(2-(4-chlorophenoxy)acetamido)cyclohexyl)-4-methyl-3,4-dihydro-2H-benzo[b][1,4]oxazine-2-carboxamide], in experiment [1], the activity at 1 µM amounted to 124% and the “% Recovery of protein synthesis” value came out at 31.6%. In experiment [2], this compound displayed an IC50 of 44 nM.
Taken in the same sequence, the figures for `CCN1CC(C(=O)N[C@H]2CC[C@H](NC(=O)COc3ccc(Cl)cc3)CC2)Oc2ccc(Cl)cc21` (stereo partly drawn) [Compound 87, trans-6-chloro-N-(4-(2-(4-chlorophenoxy)acetamido)cyclohexyl)-4-ethyl-3,4-dihydro-2H-benzo[b][1,4]oxazine-2-carboxamide] were 147%, 71.8% and 90.2 nM.
Taken in the same sequence, the figures for `O=C(COc1ccc(Cl)c(F)c1)NN1CCC(CNC(=O)c2ccc(Cl)cn2)CC1` [Compound 98, 5-chloro-N-((1-(2-(4-chloro-3-fluorophenoxy)acetamido)piperidin-4-yl)methyl)picolinamide] were -24.9%, 124.5% and 30.4 nM.
Take `NC(COc1ccc(Cl)c(F)c1)CN1CCC(NC(=O)c2ccc3cc(Cl)ccc3n2)CC1` (stereo not drawn) [Compound 1, N-(1-(2-amino-3-(4-chloro-3-fluorophenoxy)propyl)piperidin-4-yl)-6-chloroquinoline-2-carboxamide]: in experiment [1], the activity at 1 µM was 167% and the “% Recovery of protein synthesis” value is 233.4%. The IC50 in experiment [2] is above 1000 nM.
Consider `CC(C)(C(=O)NC[C@H]1CC[C@H](NC(=O)COc2ccc(Cl)cc2)CC1)c1ccc(Cl)cc1` [Compound 31, trans-N-((4-(2-(4-chlorophenoxy)acetamido)cyclohexyl)methyl)-2-(4-chlorophenyl)-2-methylpropanamide], for which, in experiment [1], the activity at 1 µM was 120% and the “% Recovery of protein synthesis” value is recorded as 66.2%. Also, the IC50 in experiment [2] is below 1000 nM.
The matching figures for `O=C(Cc1ccc(Cl)cc1)NC[C@H]1CC[C@H](NC(=O)COc2ccc(Cl)c(F)c2)CC1` [Compound 29, trans-2-(4-chloro-3-fluorophenoxy)-N-(4-((2-(4-chlorophenyl)acetamido)methyl)cyclohexyl)acetamide]: 70.9%, 1.3% and 12.5 nM.
Taken in the same sequence, the figures for `O=C(Cc1ccc(Cl)cc1)NC[C@H]1CC[C@H](NC(=O)COc2ccc(Cl)cc2)CC1` [Compound 84, trans-2-(4-chlorophenoxy)-N-(4-((2-(4-chlorophenyl)acetamido)methyl)cyclohexyl)acetamide] were 135%, 35.0% and 18.3 nM.
Taken in the same sequence, the figures for `O=C(NC[C@H]1CC[C@H](NC(=O)c2cc3cc(Cl)ccc3o2)CC1)c1cc2cc(Cl)ccc2o1` [Compound 26, trans-5-chloro-N-((4-(5-chlorobenzofuran-2-carboxamido)cyclohexyl)methyl)benzofuran-2-carboxamide] were 173%, 113.4% and 0.6 nM.
